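48-hour exposure; five concentrations; linearly interpolated endpoints. The concentration for full growth arrest is given as TGI.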 Where only a bound is given, the exact number is not on record here.

Common to all, as to assay: NCI tumour cell line growth inhibition, 48 h
Test [1] deals with DMS 273 small cell lung.
For test [2], the system named is KM20L2 colon.
Test [3] relates to M19-MEL melanoma.
Test [4] concerns RXF-631 renal.
For test [5], the system named is XF 498 CNS.
Test [6] concerns HOP-18 NSCLC.

Consider `Cc1ccc(C(=O)NCc2ccccc2)cc1N=NN(C)C`, for which the TGI in test [1], in test [2] and in test [3] was over 100 µM throughout.
As to `CCOC(=O)CCC(NC(=O)c1ccc(NCc2ccc3nc(-c4ccccc4)c(Cl)nc3c2)cc1)C(=O)OCC` (stereo not drawn), the TGI in test [1] was over 100 µM; in test [2], over 100 µM; in test [3] it was 43.2 µM; in test [4] it was 70.3 µM; in test [5], 20.4 µM.
Consider `Cc1ccc(NC(=O)C(=O)C2C(=O)NC(=O)NC2=O)cc1C`, for which the TGI in test [1], in test [6], in test [2], in test [3] and in test [5] was over 100 µM each time.
For `c1ccc2c(c1)OCCOCCOc1ccccc1OCCO2`, the TGI was over 100 µM in test [1], over 100 µM in test [6], 87.7 µM in test [2] and over 100 µM in test [3].
Take `CC(=O)OCCOCNC(=S)N/N=C/c1ccc([N+](=O)[O-])s1`: the TGI was 85.2 µM in test [1]; over 100 µM in test [6]; over 100 µM in test [2]; 34.1 µM in test [3]; over 100 µM in test [5].
`COc1ccc(/C=N/N=C(\N)NO)c(OC)c1C` showed a TGI in test [6] of 60.6 µM.
`CC(=O)O[C@]12CCCCCC1C1(O)C(O)CCCCC12` (stereo partly drawn): the TGI in test [1], in test [2], in test [3] and in test [5] was over 100 µM each time.
On to `CC(=O)O[C@@]12CO[C@@H]1CC(O)[C@@]1(C)C(=O)[C@H](O)C3=C(C)C(O)C[C@@](O)(C(OC(=O)c4ccccc4)C12)C3(C)C` (stereo partly drawn), for which the TGI was 3.31 µM in test [2], over 100 µM in test [3] and over 100 µM in test [5].
Consider `Nc1c(S(=O)(=O)c2ccccc2)c2nc3ccccc3nc2n2c1nc1ccccc12`, for which the TGI in test [1] is over 71.9 µM; in test [2] it was over 100 µM; in test [3] it was over 100 µM; in test [4], 47.5 µM; in test [5], over 44.5 µM.
Take `Cc1c2ccc3ccccc3c2c[n+]2ccccc12`: the values for the TGI in test [1], in test [2] and in test [3] were over 50.2 µM, over 64.1 µM and 15.9 µM, respectively.
`CCCCCCCCCCCC(=O)OC[C@@H](C[As](=O)(O)O)OC(=O)CCCCCCCCCCC`: the TGI came out at 12.3 µM in test [1]; 27.7 µM in test [6]; 26.4 µM in test [2]; 19.4 µM in test [3]; 29 µM in test [5].

These data come from PubChem BioAssay (NCI).
